Data published in ChEMBL document CHEMBL5291721, “A preclinical secondary pharmacology resource illuminates target-adverse drug reaction associations of marketed drugs” (Nat Commun, 2023).

Tests used:
[1] = molecular target: T1, Alpha-2B adrenergic receptor (Homo sapiens, UniProt P18089)
T1 sequence (P18089 whole entry): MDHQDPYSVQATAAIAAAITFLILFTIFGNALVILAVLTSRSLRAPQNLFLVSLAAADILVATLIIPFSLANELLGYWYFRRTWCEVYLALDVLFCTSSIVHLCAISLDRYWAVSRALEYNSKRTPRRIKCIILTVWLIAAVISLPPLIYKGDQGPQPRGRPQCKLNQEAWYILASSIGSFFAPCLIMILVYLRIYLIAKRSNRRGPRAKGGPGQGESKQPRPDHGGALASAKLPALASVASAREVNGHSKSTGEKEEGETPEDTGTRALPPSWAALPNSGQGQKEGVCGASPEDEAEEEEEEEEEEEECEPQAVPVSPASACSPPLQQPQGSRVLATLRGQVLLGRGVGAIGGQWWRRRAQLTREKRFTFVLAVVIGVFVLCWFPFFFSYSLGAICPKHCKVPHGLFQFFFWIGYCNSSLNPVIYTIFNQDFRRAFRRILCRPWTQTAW

[2] = molecular target: 5-hydroxytryptamine receptor 2A (Homo sapiens, UniProt P28223); type: functional, cell-based
Mu-type opioid receptor = Mu-type opioid receptor (Homo sapiens, UniProt P35372); assay: biochemical; type: functional
B1 bradykinin receptor = molecular target: T2, B1 bradykinin receptor (Homo sapiens, UniProt P46663)
T2 sequence (P46663 whole entry): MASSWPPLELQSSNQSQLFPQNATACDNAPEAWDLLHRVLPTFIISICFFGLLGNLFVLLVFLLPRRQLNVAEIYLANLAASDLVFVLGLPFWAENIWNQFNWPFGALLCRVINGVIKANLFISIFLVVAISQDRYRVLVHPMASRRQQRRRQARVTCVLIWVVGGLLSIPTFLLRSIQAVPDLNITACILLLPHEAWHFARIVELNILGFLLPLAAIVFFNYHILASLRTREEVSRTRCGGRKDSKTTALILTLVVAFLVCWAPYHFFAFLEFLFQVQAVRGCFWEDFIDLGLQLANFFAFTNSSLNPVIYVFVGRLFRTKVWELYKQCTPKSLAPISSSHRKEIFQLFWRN

[3] = molecular target: T3, Alpha-2A adrenergic receptor (Homo sapiens, UniProt P08913)
T3 sequence (P08913 whole entry): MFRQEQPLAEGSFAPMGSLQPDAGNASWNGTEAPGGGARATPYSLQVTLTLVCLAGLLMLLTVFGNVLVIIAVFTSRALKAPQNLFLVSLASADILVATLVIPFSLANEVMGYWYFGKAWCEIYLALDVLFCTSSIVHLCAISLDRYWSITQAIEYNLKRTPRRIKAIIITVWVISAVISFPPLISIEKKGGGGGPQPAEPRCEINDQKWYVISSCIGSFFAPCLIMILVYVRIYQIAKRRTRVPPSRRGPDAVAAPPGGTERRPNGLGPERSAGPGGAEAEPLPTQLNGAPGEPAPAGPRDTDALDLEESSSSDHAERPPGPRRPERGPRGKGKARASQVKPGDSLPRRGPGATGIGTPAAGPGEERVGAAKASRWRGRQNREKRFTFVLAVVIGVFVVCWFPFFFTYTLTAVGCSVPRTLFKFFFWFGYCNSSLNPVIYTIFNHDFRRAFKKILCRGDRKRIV

[4] = molecular target: T4, 5-hydroxytryptamine receptor 1A (Homo sapiens, UniProt P08908)
T4 sequence (P08908 whole entry): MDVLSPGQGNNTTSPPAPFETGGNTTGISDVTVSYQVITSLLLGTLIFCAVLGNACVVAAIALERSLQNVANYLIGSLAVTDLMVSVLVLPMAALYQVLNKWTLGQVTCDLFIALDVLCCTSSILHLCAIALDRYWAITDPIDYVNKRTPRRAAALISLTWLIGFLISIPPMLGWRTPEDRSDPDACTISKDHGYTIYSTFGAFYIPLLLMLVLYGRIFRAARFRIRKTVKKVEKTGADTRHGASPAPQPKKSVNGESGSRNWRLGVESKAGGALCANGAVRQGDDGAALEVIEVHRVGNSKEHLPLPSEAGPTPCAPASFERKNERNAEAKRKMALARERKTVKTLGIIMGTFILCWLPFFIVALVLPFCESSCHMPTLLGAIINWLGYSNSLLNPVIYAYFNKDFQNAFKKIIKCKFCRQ

[5] = molecular target: T5, Corticotropin-releasing factor receptor 2 (Homo sapiens, UniProt Q13324)
T5 sequence (Q13324 whole entry): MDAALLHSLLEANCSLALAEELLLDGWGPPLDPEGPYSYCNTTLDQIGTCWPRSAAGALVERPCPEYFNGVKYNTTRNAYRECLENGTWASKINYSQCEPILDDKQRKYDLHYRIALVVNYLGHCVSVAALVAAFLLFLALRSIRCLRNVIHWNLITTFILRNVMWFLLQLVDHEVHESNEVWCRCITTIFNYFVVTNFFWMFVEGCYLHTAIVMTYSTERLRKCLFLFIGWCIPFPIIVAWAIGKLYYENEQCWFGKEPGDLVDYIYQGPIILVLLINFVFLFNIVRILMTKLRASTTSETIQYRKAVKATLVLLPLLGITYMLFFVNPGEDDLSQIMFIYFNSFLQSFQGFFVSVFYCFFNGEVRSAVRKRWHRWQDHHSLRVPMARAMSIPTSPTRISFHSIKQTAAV
Also: assay procedure not described here.

Chain of 5-hydroxytryptamine receptor 2A (P28223 whole entry): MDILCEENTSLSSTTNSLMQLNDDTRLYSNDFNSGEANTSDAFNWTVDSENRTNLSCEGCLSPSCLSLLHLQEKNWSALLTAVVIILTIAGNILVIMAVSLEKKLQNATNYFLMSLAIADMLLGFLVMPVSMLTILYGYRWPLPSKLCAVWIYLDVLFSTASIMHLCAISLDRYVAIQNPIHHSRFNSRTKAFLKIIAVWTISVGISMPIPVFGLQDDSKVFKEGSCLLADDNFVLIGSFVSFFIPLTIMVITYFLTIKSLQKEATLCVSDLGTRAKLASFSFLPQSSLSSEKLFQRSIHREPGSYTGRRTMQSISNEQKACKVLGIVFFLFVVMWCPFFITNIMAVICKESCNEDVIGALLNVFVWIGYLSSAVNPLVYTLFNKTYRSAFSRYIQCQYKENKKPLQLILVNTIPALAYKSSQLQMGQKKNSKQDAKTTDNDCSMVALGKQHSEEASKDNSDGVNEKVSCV
Chain of Mu-type opioid receptor (P35372 whole entry): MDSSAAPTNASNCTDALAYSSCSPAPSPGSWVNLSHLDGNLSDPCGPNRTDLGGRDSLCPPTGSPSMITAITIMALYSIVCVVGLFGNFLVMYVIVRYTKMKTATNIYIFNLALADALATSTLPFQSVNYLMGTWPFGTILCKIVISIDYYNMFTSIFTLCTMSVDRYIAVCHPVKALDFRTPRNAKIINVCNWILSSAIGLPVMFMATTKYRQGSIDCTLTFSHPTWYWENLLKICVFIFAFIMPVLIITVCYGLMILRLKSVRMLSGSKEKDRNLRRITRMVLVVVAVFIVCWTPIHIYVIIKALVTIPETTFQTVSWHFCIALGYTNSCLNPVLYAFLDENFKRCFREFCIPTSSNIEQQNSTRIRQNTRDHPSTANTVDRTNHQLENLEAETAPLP

| SMILES | AC50 [1] [µM] | AC50 [2] [µM] | AC50 (Mu-type opioid receptor) [µM] | AC50 (B1 bradykinin receptor) [µM] | AC50 [3] [µM] | AC50 [4] [µM] | AC50 [5] [µM] |
| --- | --- | --- | --- | --- | --- | --- | --- |
| CC(C(=O)O)c1ccc2c(c1)[nH]c1ccc(Cl)cc12 (configuration not stated) [CARPROFEN] | > 10 | > 10 |  |  |  |  |  |
| CN(CC1(C)CCCO1)S(=O)(=O)c1ccc(Cl)c(S(N)(=O)=O)c1 (configuration not stated) [MEFRUSIDE] | > 30 | > 30 | > 30 |  |  |  |  |
| CCCN(CCC)C(=O)Cc1c(-c2ccc(Cl)cc2)nc2ccc(Cl)cn12 [ALPIDEM] | > 30 |  | > 30 | > 10 | > 10 | > 10 |  |
| O=C1CN(/N=C/c2ccc(-c3ccc([N+](=O)[O-])cc3)o2)C(O)=N1 [DANTROLENE] | > 10 | > 10 | > 30 |  |  |  |  |
| C[C@@H](NCCCc1cccc(C(F)(F)F)c1)c1cccc2ccccc12 | > 30 | > 30 | 1.9 |  |  |  |  |
| CC(C)Cc1ccc(C(C)C(=O)O)cc1 (configuration not stated) [IBUPROFEN] |  |  |  | > 30 | > 10 | > 10 | > 30 |
| CC(=O)O[C@]1(C(C)=O)CC[C@H]2[C@@H]3C=C(C)C4=CC(=O)CC[C@@H]4[C@H]3CC[C@@]21C [NOMEGESTROL ACETATE] | > 30 | > 30 | > 30 |  |  |  |  |
| C#C[C@]1(O)CC[C@H]2[C@@H]3CCC4=CC(=O)CC[C@@H]4[C@H]3C(=C)C[C@@]21CC [ETONOGESTREL] | > 30 | > 30 | > 30 |  |  |  |  |
| CN(C)CC[C@@H](c1ccc(Cl)cc1)c1ccccn1 [DEXCHLORPHENIRAMINE] |  |  | > 30 |  |  |  |  |
| C[C@H]1c2cccc(O)c2C(=O)C2=C(O)[C@]3(O)C(=O)C(C(N)=O)=C(O)[C@@H](N(C)C)[C@@H]3[C@@H](O)[C@@H]21 [DOXYCYCLINE] |  |  |  | > 30 | > 10 | > 10 | > 30 |
| O=C1C(CC[S+]([O-])c2ccccc2)C(=O)N(c2ccccc2)N1c1ccccc1 (configuration not stated) [SULFINPYRAZONE] |  |  | > 30 |  |  |  |  |
| CCN(CC)CCNC(=O)c1c(C)[nH]c(/C=C2\C(=O)Nc3ccc(F)cc32)c1C [SUNITINIB] | 4.37 |  | > 30 |  | 9.47 | 7.13 |  |
| COc1ccccc1Oc1c(NS(=O)(=O)c2ccc(C(C)(C)C)cc2)nc(-c2ncccn2)nc1OCCO [BOSENTAN] | > 10 |  |  | > 30 | > 10 | > 10 | > 30 |
| Nc1ccc(S(=O)(=O)Nc2nccs2)cc1 [SULFATHIAZOLE] |  |  |  | > 30 | > 10 | > 10 | > 30 |
| O=C1CCc2cc(OCCCCc3nnnn3C3CCCCC3)ccc2N1 [CILOSTAZOL] |  |  | > 30 |  |  | > 10 |  |
| COc1ccc(CC2c3cc(OC)c(OC)cc3CC[N+]2(C)CCC(=O)OCCCCCOC(=O)CC[N+]2(C)CCc3cc(OC)c(OC)cc3C2Cc2ccc(OC)c(OC)c2)cc1OC (configuration not stated) | > 30 | > 30 | > 30 |  | > 30 |  |  |
| CCCC(CCC)C(=O)O [VALPROIC ACID] |  |  |  | > 30 | > 10 | > 10 | > 30 |
| CN1C(C(=O)Nc2ccccn2)=C(O)c2ccccc2S1(=O)=O [PIROXICAM] |  |  | > 30 |  |  |  |  |
| C=C[C@H]1C[N@@]2CC[C@H]1C[C@@H]2[C@@H](O)c1ccnc2ccc(OC)cc12 [QUINIDINE] | 6.5 |  | > 30 |  |  | > 10 |  |
| C[C@]12C=CC(=O)N[C@@H]1CC[C@@H]1[C@@H]2CC[C@]2(C)[C@@H](C(=O)Nc3cc(C(F)(F)F)ccc3C(F)(F)F)CC[C@@H]12 [DUTASTERIDE] | > 10 | > 10 | > 30 |  |  |  |  |
| CC(C)N(CCC(C(N)=O)(c1ccccc1)c1ccccn1)C(C)C (configuration not stated) [DISOPYRAMIDE] | > 10 |  |  | > 30 |  | > 10 | > 30 |
| CN(C)CCc1c[nH]c2ccc(Cn3cncn3)cc12 [RIZATRIPTAN] | > 30 | 7.75 | > 30 | > 30 | > 10 |  | > 30 |
